The test system of series [1] is thrombocyte aggregation. As to the kind of experiment: Thrombocyte aggregation according to Born and Cross (collagen-induced, platelet-rich plasma). To be noted: platelet-rich plasma from healthy human test subjects; aggregation initiated by collagen. It is filed as cell-based. As for the experimental part: Determination of the thrombocyte aggregation according to Born and Cross [J. Physiol. 170, 397 (1964)]
The thrombocyte aggregation was determined in platelet-rich plasma from healthy human test subjects. The course of decrease in optical density after the administration of standard commercial collagen (made by the Sigma Co., St. Louis, Mo.) containing 1 mg of collagen fibrils per ml was measured photometrically and recorded. The rate of aggregation (Vmax) was deduced from the angle of inclination of the density curve. The point on the curve where there was most light transmittance was used to calculate the optical density (O.D.). To initiate maximum aggregation, about 0.01 ml of the collagen solution was added to 1 ml of platelet-rich plasma.

The subject of series [2] is anesthetized cat. Nature of the series: Hypotensive and positive inotropic activity in the anesthetized cat. To be noted: average; for Change in blood pressure (first value of the printed pair) / Change in blood pressure (second value of the printed pair): arterial pressure, aorta abdominalis; for Change in blood pressure (first value of the printed pair): first number before the slash; for Change in blood pressure (second value of the printed pair): second number after the slash; for Increase in dp/dt: left ventricle pressure, dp/dtmax. The format is in vivo. As for the experimental part: Determination of hypotensive and positive inotropic activity in the anesthetized cat
The tests were carried out on cats which had been anesthetized with sodium pentobarbital (40 mg/kg i.p.). The animals breathed spontaneously. The arterial blood pressure was measured in the aorta abdominalis using a Statham pressure transducer (P 23 Dc). To determine the positive inotropic effect, the pressure in the left ventricle of the heart was measured using a catheter-tip manometer (Milliar PC-350 A). From this, the contractility parameter (dp/dtmax was obtained by means of an analog differentiator.
The test compounds were injected into a vena femoralis. Physiological saline solution or Polydiol 200 was used as the solvent. Each compound was tested on at least 3 cats in a dosage of 0.1 or 2.0 mg/kg i.v. The duration of activity of the test compounds was at least 45 minutes in each case.

Series [3] is described as follows: Acute toxicity. To be noted: in vivo, po; peroral, mouse. As for the experimental part: In therapeutic doses the test substances are non-toxic. For example, compound B has a peroral LD50 of >50 mg/kg in the mouse.

One may read the EC50 as the concentration needed to bring the measured effect to its halfway point. Read a low EC50 as a more potent agent. What is called LD50 is the dose expected to kill half of the subjects tested.

`COc1ccc(C(=O)n2nnc3cc(C4=NNC(=O)CC4C)ccc32)cc1` (stereo not shown) [A, 5-Methyl-6-(1'-p-methoxybenzoyl-benzotriazol-5'-yl)-4,5-dihydro-3(2H)-pyridazinone] gave a concentration giving a half-maximal response (EC50) in series [1] of 0.27 µM. Moreover, in series [2] (0.1 mg/kg i.v.), the “Change in blood pressure (first value of the printed pair)” value was -16 mm Hg, the “Change in blood pressure (second value of the printed pair)” value is on record as -16 mm Hg and the Increase in dp/dt entry was “+105%”.

The compound `CC1CC(=O)NN=C1c1ccc2c(c1)nnn2C(=O)C1CCCCC1` (stereo not shown) [B, 5-Methyl-6-(1'-cyclohexanoyl-benzotriazol-5'-yl)-4,5-dihydro-3(2H)-pyridazinone] registered an EC50 in series [1] of 0.28 µM. Moreover, in series [2] (2.0 mg/kg i.v.), the “Change in blood pressure (first value of the printed pair)” value is -60 mm Hg, the “Change in blood pressure (second value of the printed pair)” value is listed as -37 mm Hg and the Increase in dp/dt result was “+154%”. This compound yielded an LD50 in series [3] of more than 50 mg/kg.

For `CC1CC(=O)NN=C1c1ccc2c(c1)nnn2C(C)C` (stereo not shown) [C, 5-Methyl-6-(1'-isopropyl-benzotriazol-5'-yl)-4,5-dihydro-3(2H)-pyridazinone], the EC50 in series [1] was determined as 0.033 µM. For the same compound, in series [2] (0.1 mg/kg i.v.), the “Change in blood pressure (first value of the printed pair)” value is recorded as -27 mm Hg, the “Change in blood pressure (second value of the printed pair)” value is recorded as -33 mm Hg and the Increase in dp/dt entry is “+116%”.

Turning to `COc1ccc(Cn2nnc3cc(C4=NNC(=O)CC4C)ccc32)cc1` (stereo not shown) [Compound E, 5-Methyl-6-(1'-p-methoxybenzyl-benzotriazol-5'-yl)-4,5-dihydro-3(2H)-pyridazinone], in series [2] (0.1 mg/kg i.v.), the “Change in blood pressure (first value of the printed pair)” value is reported as -48 mm Hg, the “Change in blood pressure (second value of the printed pair)” value was -48 mm Hg and the Increase in dp/dt result was “+167%”.

Turning to `CCn1nnc2cc(C3=NNC(=O)CC3C)ccc21` (stereo not shown) [D, 5-Methyl-6-(1'-ethyl-benzotriazol-5'-yl)-4,5-dihydro-3(2H)-pyridazinone], the midpoint of the response in series [1], the EC50, lay at 0.041 µM. Besides, in series [2] (0.1 mg/kg i.v.), the “Change in blood pressure (first value of the printed pair)” value is -30 mm Hg, the “Change in blood pressure (second value of the printed pair)” value was -32 mm Hg and the Increase in dp/dt result was “+125%”.

In series [1], `CC1CC(=O)NN=C1c1ccc2c(c1)nnn2CCN(C)C` (stereo not shown) [F, 5-Methyl-6-[1'-(2-dimethylaminoethyl)-benzotriazol-5'-yl]-4,5-dihydro-3(2H)-pyridazinone] registered an EC50 of 0.3 µM.

`CC1CC(=O)NN=C1c1ccc2c(c1)nnn2C` (stereo not shown) [G, 5-Methyl-6-(1'-methyl-benzotriazol-5'-yl)-4,5-dihydro-3(2H)-pyridazinone] yielded a half-maximal effective concentration (EC50) in series [1] of 0.051 µM. For the same compound, in series [2] (0.1 mg/kg i.v.), the “Change in blood pressure (first value of the printed pair)” value is -33 mm Hg, the “Change in blood pressure (second value of the printed pair)” value is -38 mm Hg and the Increase in dp/dt result is listed as “+168%”.
